Earlier results on four compounds are cited in article PMC5108082, “Pharmacokinetics, toxicity, and cytochrome P450 modulatory activity of plumbagin” (BMC Pharmacology & Toxicology, 2016).

What is called IC50 is the point on the concentration scale where inhibition reaches its midpoint.

For data set [1], the system named is K1 chloroquine-resistant P. falciparum. Conditions: K1 clone; read-out: mean IC50; cited from earlier work.
Data set [2] deals with 3D7 chloroquine-sensitive P. falciparum. The conditions noted are these: 3D7 clone; read-out: mean IC50; cited from earlier work.

With `C[C@H]1[C@H](OC(=O)CCC(=O)O)O[C@@H]2O[C@@]3(C)CC[C@H]4[C@H](C)CC[C@@H]1[C@@]24OO3` [artesunate], the results for the concentration for half-maximal inhibition (IC50) in data set [1] and in data set [2] were 1.5 nM and 2 nM, respectively.

Turning to `CCN(CC)CCCC(C)Nc1ccnc2cc(Cl)ccc12` (centres unmarked) [chloroquine], the IC50 in data set [1] is 130 nM; in data set [2], 8 nM.

In the case of `OC(c1cc(C(F)(F)F)nc2c(C(F)(F)F)cccc12)C1CCCCN1` (centres unmarked) [mefloquine], the IC50 in data set [1] was 12 nM; in data set [2], 10 nM.

On to `C=C[C@H]1C[N@@]2CC[C@H]1C[C@H]2[C@H](O)c1ccnc2ccc(OC)cc12` [quinine], for which the IC50 in data set [1] was 133 nM; in data set [2] it was 52 nM.
